According to ChEMBL document CHEMBL1154236, “Monoterpenes from Paeonia albiflora and their inhibitory activity on nitric oxide production by lipopolysaccharide-activated microglia” (J Nat Prod, 2009):

What was measured:
Conditions in all cases: N9, 48 h
N9 [1] = assay: Antiinflammatory activity against mouse N9 cells assessed as LPS-induced nitric oxide production at 1 uM after 48 hrs by Griess reaction relative to control
N9 [2] = assay: Antiinflammatory activity against mouse N9 cells assessed as LPS-induced nitric oxide production at 3 uM after 48 hrs by Griess reaction relative to control
N9 [3] = assay: Antiinflammatory activity against mouse N9 cells assessed as LPS-induced nitric oxide production at 10 uM after 48 hrs by Griess reaction relative to control
N9 [4] = assay: Antiinflammatory activity against mouse N9 cells assessed as LPS-induced nitric oxide production at 30 uM after 48 hrs by Griess reaction relative to control
N9 [5] = assay: Antiinflammatory activity against mouse N9 cells assessed as inhibition of LPS-induced nitric oxide production after 48 hrs by Griess reaction relative to control

SMILES	NO production (% of LPS control) at 1 µM (N9 [1]) [%]	NO production (% of LPS control) at 3 µM (N9 [2]) [%]	NO production (% of LPS control) at 10 µM (N9 [3]) [%]	NO production (% of LPS control) at 30 µM (N9 [4]) [%]	IC50 (N9 [5]) [µM]
CO[C@H]1O[C@@]2(C)CC(=O)[C@H]3C[C@]2(O[C@@H]2O[C@H](COC(=O)c4ccccc4)[C@@H](O)[C@H](O)[C@H]2O)[C@]13COC(=O)c1ccc(O)cc1 [PAEONIDANIN C]	106	111	94.3	80.3	> 100
CO[C@]12C[C@]3(C)O[C@H](O1)[C@]1(CO)[C@@H]2C[C@]13O[C@@H]1O[C@H](CO)[C@@H](O)[C@H](O)[C@H]1O	101	104	97.4	78.9	> 100
CO[C@]12C[C@]3(C)O[C@H](O1)[C@]1(COC(=O)c4ccccc4)[C@@H]2C[C@]13O[C@@H]1O[C@H](CO)[C@@H](O)[C@H](O)[C@H]1O	111	109	107	90.4	> 100
C[C@@]12C[C@@]3(O)O[C@@H](O1)[C@]1(COC(=O)c4ccccc4)[C@H]3C[C@@]12O[C@@H]1O[C@H](CO)[C@@H](O)[C@H](O)[C@H]1O [PAEONIFLORIN]	100	87.8	79.5	66.7	27.8
COc1cc(COC[C@H]2O[C@@H](O[C@@]34C[C@H]5[C@@]3(COC(=O)c3ccccc3)[C@H]3O[C@]5(O)C[C@]4(C)O3)[C@H](O)[C@@H](O)[C@@H]2O)ccc1O	107	106	99.8	90.1	> 100
CC12CC3OC4O[C@H](CO)[C@@H](O)[C@H](O)[C@H]4OC34CC1C4(COC(=O)c1ccccc1)C(=O)O2 (stereo not given in full) [LACTIFLORIN]	89.4	91.5	86.7	81.2	> 100
CO[C@H]1O[C@@]2(C)CC(=O)[C@H]3C[C@]2(O)[C@]13COC(=O)c1ccccc1 [PAEONIDANGENIN]	89.9	91.5	85	66.2	> 100
CO[C@@H]1C[C@]2(C)OC(=O)[C@]3(COC(=O)c4ccccc4)[C@@H]1C[C@@]23O[C@@H]1O[C@H](CO)[C@@H](O)[C@H](O)[C@H]1O	91.5	91.6	95.5	102	> 100
CO[C@H]1O[C@@]2(C)CC(=O)[C@H]3C[C@]2(O[C@@H]2O[C@H](COC(=O)c4ccccc4)[C@@H](O)[C@H](O)[C@H]2O)[C@]13COC(=O)c1ccccc1 [PAEONIDANIN A]	86.6	74.9	59.1	57.2	36.2
COc1cc(/C=C/C(=O)CC(=O)/C=C/c2ccc(O)c(OC)c2)ccc1O [CURCUMIN]	86.6	75.6	56.1	35.2	13.5
COc1cc(C(=O)OC[C@H]2O[C@@H](O[C@@]34C[C@H]5[C@@]3(CO)[C@H]3O[C@]5(O)C[C@]4(C)O3)[C@H](O)[C@@H](O)[C@@H]2O)ccc1O [MUDANPIOSIDE E]	86.2	83.9	80.9	67.4	> 100
